Publication PMC10017709, “Structural basis of selective cannabinoid CB2 receptor activation” (Nature Communications, 2023)
Several values for one entry are separate records, joined by “and”; a condition that tells them apart may be missing. Identical values can stand only once.

Key:
hCB2R = biological target: T1, hCB2R (Homo sapiens, UniProt P34972); test: [3H]RO6957022 competition association assay; format: binding
T1 construct: host or cells: CHO-K1 (CHOK1_hCB2bgal, PathHunter), membranes

CB2R WT = CB2R WT (Homo sapiens, UniProt P34972); test: [35S]GTPγS G protein activation assay, CB2R WT; format: biochemical; settings: for Emax: CB2R WT
CB2R WT, sequence (P34972 whole entry): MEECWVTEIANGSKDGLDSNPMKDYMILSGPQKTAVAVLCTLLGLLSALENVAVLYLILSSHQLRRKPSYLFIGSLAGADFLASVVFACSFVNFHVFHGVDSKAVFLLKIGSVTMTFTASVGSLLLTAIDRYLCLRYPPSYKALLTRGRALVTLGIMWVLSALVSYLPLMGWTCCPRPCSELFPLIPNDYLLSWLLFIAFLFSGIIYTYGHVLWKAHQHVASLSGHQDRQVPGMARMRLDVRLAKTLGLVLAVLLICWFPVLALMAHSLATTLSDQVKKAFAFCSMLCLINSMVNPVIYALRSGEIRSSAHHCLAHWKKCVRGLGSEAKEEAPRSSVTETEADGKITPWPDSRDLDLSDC

CB2R-I110^3.29L = CB2R-I110^3.29L (Homo sapiens, UniProt P34972, I110L); test: [35S]GTPγS assay, CB2R I110L mutant; format: biochemical; settings: for [35S]GTPγS binding: I1103.29L, individual replicates
CB2R-I110^3.29L, sequence (P34972 whole entry I110L): as the sequence (P34972 whole entry) above, with I110L counted along it

CB2R-I110^3.29A = CB2R-I110^3.29A (Homo sapiens, UniProt P34972, I110A); test: [35S]GTPγS assay, CB2R I110A mutant; format: biochemical; settings: for [35S]GTPγS binding: I1103.29A, individual replicates
CB2R-I110^3.29A, sequence (P34972 whole entry I110A): as the sequence (P34972 whole entry) above, with I110A counted along it

CB2R-S285^7.39A = CB2R-S285^7.39A (Homo sapiens, UniProt P34972, S285A); test: [35S]GTPγS assay, CB2R S285A mutant; format: biochemical
CB2R-S285^7.39A, sequence (P34972 whole entry S285A): as the sequence (P34972 whole entry) above, with S285A counted along it

CB2R-F117^3.36A = CB2R-F117^3.36A (Homo sapiens, UniProt P34972, F117A); test: [35S]GTPγS assay, CB2R F117A mutant; format: biochemical
CB2R-F117^3.36A, sequence (P34972 whole entry F117A): as the sequence (P34972 whole entry) above, with F117A counted along it

CB2R-H95^2.65A = CB2R-H95^2.65A (Homo sapiens, UniProt P34972, H95A); test: [35S]GTPγS assay, CB2R H95A mutant; format: biochemical
CB2R-H95^2.65A, sequence (P34972 whole entry H95A): as the sequence (P34972 whole entry) above, with H95A counted along it

CB2R-V261^6.51L = CB2R-V261^6.51L (Homo sapiens, UniProt P34972, V261L); test: [35S]GTPγS assay, CB2R V261L mutant; format: biochemical; settings: for [35S]GTPγS binding: V2616.51L, individual replicates
CB2R-V261^6.51L, sequence (P34972 whole entry V261L): as the sequence (P34972 whole entry) above, with V261L counted along it

CB2R-L185^ECL2H = CB2R-L185^ECL2H (Homo sapiens, UniProt P34972, L185H); test: [35S]GTPγS assay, CB2R L185H mutant; format: biochemical
CB2R-L185^ECL2H, sequence (P34972 whole entry L185H): as the sequence (P34972 whole entry) above, with L185H counted along it

CB2R-L182^ECL2I = CB2R-L182^ECL2I (Homo sapiens, UniProt P34972, L182I); test: [35S]GTPγS assay, CB2R L182I mutant; format: biochemical
CB2R-L182^ECL2I, sequence (P34972 whole entry L182I): as the sequence (P34972 whole entry) above, with L182I counted along it

CB2R-E181^ECL2D = CB2R-E181^ECL2D (Homo sapiens, UniProt P34972, E181D); test: [35S]GTPγS assay, CB2R E181D mutant; format: biochemical
CB2R-E181^ECL2D, sequence (P34972 whole entry E181D): as the sequence (P34972 whole entry) above, with E181D counted along it

CB2R-Quadruple^TM1,7 = CB2R-Quadruple^TM1,7 (Homo sapiens, UniProt P34972, C40S/K279T/K33Q/V36I); test: [35S]GTPγS assay, CB2R quadruple mutant; format: biochemical
CB2R-Quadruple^TM1,7, sequence (P34972 whole entry K33Q/V36I/C40S/K279T): as the sequence (P34972 whole entry) above, with K33Q, V36I, C40S, K279T counted along it

hCB1R WT [1] = biological target: T2, hCB1R WT (Homo sapiens, UniProt P21554); test: [3H]CP55,940 displacement assay, CB1R WT; format: binding
T2 sequence (P21554 whole entry): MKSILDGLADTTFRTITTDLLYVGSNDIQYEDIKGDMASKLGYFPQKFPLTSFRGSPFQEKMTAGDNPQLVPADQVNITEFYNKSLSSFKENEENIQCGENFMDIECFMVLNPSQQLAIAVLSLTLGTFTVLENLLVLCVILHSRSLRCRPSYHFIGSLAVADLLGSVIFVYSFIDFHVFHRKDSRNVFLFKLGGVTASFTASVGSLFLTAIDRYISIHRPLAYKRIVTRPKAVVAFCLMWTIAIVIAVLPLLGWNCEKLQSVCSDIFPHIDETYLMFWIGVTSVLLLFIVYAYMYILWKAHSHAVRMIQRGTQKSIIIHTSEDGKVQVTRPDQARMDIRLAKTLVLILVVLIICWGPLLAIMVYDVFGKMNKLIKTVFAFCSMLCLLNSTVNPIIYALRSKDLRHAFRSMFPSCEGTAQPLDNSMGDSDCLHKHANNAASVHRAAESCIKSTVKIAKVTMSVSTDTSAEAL

CB1R-L359^6.51V = CB1R-L359^6.51V (Homo sapiens, UniProt P21554, L359V); test: [3H]CP55,940 displacement assay, CB1R L359V mutant; format: binding
CB1R-L359^6.51V, sequence (P21554 whole entry L359V): as the sequence (P21554 whole entry) above, with L359V counted along it

CB1R-H270^ECL2L [2] = biological target: T3, CB1R-H270^ECL2L (Homo sapiens, UniProt P21554, H270L); test: [3H]CP55,940 displacement assay, CB1R H270L mutant; format: binding
T3 sequence (P21554 whole entry H270L): as the sequence (P21554 whole entry) above, with H270L counted along it

CB1R I267ECL2L [3] = biological target: T4, CB1R I267ECL2L (Homo sapiens, UniProt P21554, I267L); test: [3H]CP55,940 displacement assay, CB1R I267L mutant; format: binding
T4 sequence (P21554 whole entry I267L): as the sequence (P21554 whole entry) above, with I267L counted along it

CB1R D266ECL2E [4] = biological target: T5, CB1R D266ECL2E (Homo sapiens, UniProt P21554, D266E); test: [3H]CP55,940 displacement assay, CB1R D266E mutant; format: binding
T5 construct: The WT CB1R and CB2R genes were subcloned into vector pcDNA3.1; HA signal peptide (N); expressed in transfected cells; host or cells: HEK293T (transient, membrane homogenates)
T5 sequence (P21554 whole entry D266E): as the sequence (P21554 whole entry) above, with D266E counted along it

CB1R QuadrupleTM1,7 [5] = biological target: T6, CB1R QuadrupleTM1,7 (Homo sapiens, UniProt P21554, I119V/Q116K/S123C/T377K); test: [3H]CP55,940 displacement assay, CB1R quadruple mutant; format: binding
T6 construct: The WT CB1R and CB2R genes were subcloned into vector pcDNA3.1; HA signal peptide (N); expressed in transfected cells; host or cells: HEK293T (transient, membrane homogenates)
T6 sequence (P21554 whole entry Q116K/I119V/S123C/T377K): as the sequence (P21554 whole entry) above, with Q116K, I119V, S123C, T377K counted along it

hCB1R WT [6] = biological target: T2, hCB1R WT; test: [35S]GTPγS G protein activation assay, CB1R WT; format: biochemical; settings: CB1R WT; 10 µM agonist
CB1R-H270^ECL2L [7] = biological target: T3, CB1R-H270^ECL2L; test: [35S]GTPγS assay, CB1R H270L mutant; format: biochemical; settings: CB1R H270L; 10 µM agonist
CB1R I267ECL2L [8] = biological target: T4, CB1R I267ECL2L; test: [35S]GTPγS assay, CB1R I267L mutant; format: biochemical; settings: CB1R I267L; 10 µM agonist
CB1R D266ECL2E [9] = biological target: T5, CB1R D266ECL2E; test: [35S]GTPγS assay, CB1R D266E mutant; format: biochemical; settings: CB1R D266E; 10 µM agonist
CB1R QuadrupleTM1,7 [10] = test: [35S]GTPγS assay, CB1R quadruple mutant; format: biochemical, human; settings: CB1R Quadruple TM1,7; 10 µM agonist

T1 sequence (P34972 whole entry): as the sequence (P34972 whole entry) above

SMILES: CCCCCCC(C)(C)c1cc(OC)c([C@@H]2C=C(CO)[C@@H]3C[C@H]2C3(C)C)c(OC)c1 [HU308]
- ET (engagement time) (hCB2R): 143 s and 143 ± 47.9 s
- Emax (CB2R WT; maximum effect at 10 µM compared to WT (Suppl. Table 6)): 105 ± 3%
- Emax (CB2R WT; maximum effect compared to CP55,940): 91 ± 8%
- [35S]GTPγS binding, percentage of WT (CB2R WT; WT, log [ligand] (M) -10, individual replicates): 12.69 percentage of WT and 0.12 percentage of WT and -18.99 percentage of WT and 12.94 percentage of WT and 1.90 percentage of WT and -10.30 percentage of WT and -18.00 percentage of WT and 0.09 percentage of WT and 9.81 percentage of WT and 3.21 percentage of WT
- [35S]GTPγS binding, percentage of CP55,940 (CB2R WT; log [agonist] (M) -5, individual replicates): 84.84% and 81.20% and 107.18%
- [35S]GTPγS binding, percentage of CP55,940 (CB2R WT; log [agonist] (M) -6, individual replicates): 42.88% and 70.07% and 64.55%
- [35S]GTPγS binding, percentage of CP55,940 (CB2R WT; log [agonist] (M) -7, individual replicates): 59.80% and 30.89% and 31.02%
- [35S]GTPγS binding, percentage of CP55,940 (CB2R WT; log [agonist] (M) -8, individual replicates): 26.43% and 5.08% and 10.60%
- [35S]GTPγS binding, percentage of CP55,940 (CB2R WT; log [agonist] (M) -9, individual replicates): -10.38% and -5.63% and -15.53%
- [35S]GTPγS binding, percentage of CP55,940 (CB2R WT; log [agonist] (M) -10, individual replicates): 1.23% and -8.38% and 14.06%
- Emax (CB2R-I110^3.29L): 122 ± 12%
- [35S]GTPγS binding (CB2R-I110^3.29L; log [ligand] (M) -5): 144.00 percentage of WT and 101.90 percentage of WT and 119.46 percentage of WT
- [35S]GTPγS binding (CB2R-I110^3.29L; log [ligand] (M) -6): 62.70 percentage of WT and 56.80 percentage of WT and 71.03 percentage of WT
- [35S]GTPγS binding (CB2R-I110^3.29L; log [ligand] (M) -7): 34.90 percentage of WT and 47.80 percentage of WT and 66.79 percentage of WT
- [35S]GTPγS binding (CB2R-I110^3.29L; log [ligand] (M) -8): 0.30 percentage of WT and -7.00 percentage of WT and 4.82 percentage of WT
- [35S]GTPγS binding (CB2R-I110^3.29L; log [ligand] (M) -9): -41.10 percentage of WT and -11.80 percentage of WT and -14.01 percentage of WT
- [35S]GTPγS binding (CB2R-I110^3.29L; log [ligand] (M) -10): -13.40 percentage of WT and -17.60 percentage of WT and 8.27 percentage of WT
- Emax (CB2R-I110^3.29A): 27 ± 10%
- [35S]GTPγS binding (CB2R-I110^3.29A; log [ligand] (M) -5): 7.61 percentage of WT and 53.50 percentage of WT and 22.50 percentage of WT and 24.96 percentage of WT
- [35S]GTPγS binding (CB2R-I110^3.29A; log [ligand] (M) -6): -2.63 percentage of WT and 15.83 percentage of WT and -2.10 percentage of WT and 11.35 percentage of WT
- [35S]GTPγS binding (CB2R-I110^3.29A; log [ligand] (M) -7): -21.19 percentage of WT and 26.20 percentage of WT and -0.60 percentage of WT and -1.65 percentage of WT
- [35S]GTPγS binding (CB2R-I110^3.29A; log [ligand] (M) -8): -20.10 percentage of WT and 21.60 percentage of WT and -13.80 percentage of WT and -17.12 percentage of WT
- [35S]GTPγS binding (CB2R-I110^3.29A; log [ligand] (M) -9): -21.53 percentage of WT and -16.40 percentage of WT and -20.30 percentage of WT and -26.64 percentage of WT
- [35S]GTPγS binding (CB2R-I110^3.29A; log [ligand] (M) -10): -16.86 percentage of WT and 2.60 percentage of WT and -15.20 percentage of WT and -22.40 percentage of WT
- Emax (CB2R-S285^7.39A): 65 ± 18%
- loss in potency compared to WT (CB2R-S285^7.39A; S285A mutant vs WT, [35S]GTPγS): 15 fold
- Emax (%) (CB2R-S285^7.39A; S285A mutant, at 10 µM compared to WT): unaffected
- Emax (CB2R-F117^3.36A): 5 ± 11%
- [35S]GTPγS binding (CB2R-F117^3.36A; F1173.36A, log [ligand] (M) -5, individual replicates): -12.18 percentage of WT and 25.21 percentage of WT and 1.54 percentage of WT
- Emax (CB2R-H95^2.65A): 67 ± 16%
- Emax (CB2R-V261^6.51L): 26 ± 7%
- drop in potency compared to WT (CB2R-V261^6.51L; V261L mutant vs WT, [35S]GTPγS): more than 120 fold
- [35S]GTPγS binding (CB2R-V261^6.51L; log [ligand] (M) -5): 38.70 percentage of WT and 22.83 percentage of WT and 16.52 percentage of WT
- [35S]GTPγS binding (CB2R-V261^6.51L; log [ligand] (M) -6): 9.87 percentage of WT and 8.25 percentage of WT and -4.25 percentage of WT
- [35S]GTPγS binding (CB2R-V261^6.51L; log [ligand] (M) -7): 4.21 percentage of WT and 12.98 percentage of WT and 17.88 percentage of WT
- [35S]GTPγS binding (CB2R-V261^6.51L; log [ligand] (M) -8): 19.13 percentage of WT and 1.74 percentage of WT and -11.50 percentage of WT
- [35S]GTPγS binding (CB2R-V261^6.51L; log [ligand] (M) -9): 9.08 percentage of WT and 5.95 percentage of WT and 6.43 percentage of WT
- [35S]GTPγS binding (CB2R-V261^6.51L; log [ligand] (M) -10): 7.31 percentage of WT and 13.50 percentage of WT and 10.09 percentage of WT
- Emax (CB2R-L185^ECL2H): 146 ± 8%
- Emax (CB2R-L182^ECL2I): 10 ± 7%
- Emax (CB2R-E181^ECL2D): 32 ± 3%
- Emax (CB2R-Quadruple^TM1,7): 1 ± 9%
- activation of CB2R-Quadruple^TM1,7 (CB2R-Quadruple^TM1,7): completely lost their ability to activate
- Displacement (%) of [3H]CP55,940 (hCB1R WT [1]): 6 ± 7%
- percentage specific [3H]CP55,940 binding (hCB1R WT [1]): 78.66 percentage and 99.84 percentage and 102.02 percentage
- percentage specific [3H]CP55,940 binding (CB1R-L359^6.51V): 49.24 percentage and 48.12 percentage and 78.61 percentage
- Displacement (%) of [3H]CP55,940 (CB1R-H270^ECL2L [2]): 46 ± 3%
- percentage specific [3H]CP55,940 binding (CB1R-H270^ECL2L [2]): 48.81 percentage and 55.24 percentage and 57.51 percentage
- Displacement (%) of [3H]CP55,940 (CB1R I267ECL2L [3]): -7 ± 19%
- percentage specific [3H]CP55,940 binding (CB1R I267ECL2L [3]): 143.22 percentage and 82.61 percentage and 94.20 percentage
- Displacement (%) of [3H]CP55,940 (CB1R D266ECL2E [4]): 34 ± 5%
- percentage specific [3H]CP55,940 binding (CB1R D266ECL2E [4]): 73.61 percentage and 56.25 percentage and 67.45 percentage
- Displacement (%) of [3H]CP55,940 (CB1R QuadrupleTM1,7 [5]): -13 ± 22%
- percentage specific [3H]CP55,940 binding (CB1R QuadrupleTM1,7 [5]): 134.56 percentage and 68.97 percentage and 134.64 percentage
- Agonist-mediated activation (hCB1R WT [6]): 0.8 ± 0.0 fold over its basal
- Agonist-mediated activation (CB1R-H270^ECL2L [7]): 1.2 ± 0.1 fold over its basal
- Agonist-mediated activation (CB1R I267ECL2L [8]): 0.8 ± 0.0 fold over its basal
- Agonist-mediated activation (CB1R D266ECL2E [9]): 0.8 ± 0.1 fold over its basal
- Agonist-mediated activation (CB1R QuadrupleTM1,7 [10]): 0.9 ± 0.0 fold over its basal
